Measurements as given in PMC6934184, “Selective DNA-PKcs inhibition extends the therapeutic index of localized radiotherapy and chemotherapy” (The Journal of Clinical Investigation, 2019).

Target: T1, DCAMKL2 (DCK2) (Homo sapiens, UniProt Q8N568)
T1 construct: purchased Thermo Fisher Scientific (Life Technologies) SelectScreen
Experiment: SelectScreen Z'LYTE
Type: biochemical
How it was run: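 SelectScreen broad panel; activity (Z'LYTE, Adapta) plus binding formats. ATP: Km app for CSF1R Z'LYTE; 10 for CAMK1 Adapta. Readout = % per kinase.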

T1 sequence (Q8N568 whole entry): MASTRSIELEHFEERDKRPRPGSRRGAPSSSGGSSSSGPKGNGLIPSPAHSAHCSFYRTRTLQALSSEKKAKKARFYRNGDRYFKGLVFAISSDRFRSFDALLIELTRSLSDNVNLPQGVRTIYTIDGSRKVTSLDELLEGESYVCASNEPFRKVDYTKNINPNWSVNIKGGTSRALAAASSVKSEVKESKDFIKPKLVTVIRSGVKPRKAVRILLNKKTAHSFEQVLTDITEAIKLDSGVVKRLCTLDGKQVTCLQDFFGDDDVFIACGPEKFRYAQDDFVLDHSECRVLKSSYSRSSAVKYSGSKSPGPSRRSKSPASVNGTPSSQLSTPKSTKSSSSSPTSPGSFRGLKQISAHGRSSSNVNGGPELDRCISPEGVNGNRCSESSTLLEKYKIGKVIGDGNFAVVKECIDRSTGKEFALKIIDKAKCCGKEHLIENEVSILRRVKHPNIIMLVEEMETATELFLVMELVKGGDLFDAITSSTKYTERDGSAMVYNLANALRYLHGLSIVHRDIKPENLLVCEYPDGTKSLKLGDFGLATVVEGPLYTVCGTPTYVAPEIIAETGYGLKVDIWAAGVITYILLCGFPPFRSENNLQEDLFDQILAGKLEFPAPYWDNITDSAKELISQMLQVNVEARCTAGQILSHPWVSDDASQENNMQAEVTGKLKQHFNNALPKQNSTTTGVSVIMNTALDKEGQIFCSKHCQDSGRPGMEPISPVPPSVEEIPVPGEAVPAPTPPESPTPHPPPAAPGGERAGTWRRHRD

CN(C(=O)CN1CCOCC1)c1ccc2sc3c(-c4cccc5c(=O)cc(N6CC7CCC(C6)O7)oc45)cccc3c2c1 [NU5455]
inhibition at 1 µM: 1.5%
